The text below walks through data of a melting point compilation (Tetko et al.; mined from patent text by program, amines drawn as free bases though some values may be those of a salt).

`CC(Nc1nc(Oc2cccc3sc(N)nc23)cc(-c2ccc(C(F)(F)F)cc2)n1)c1ccc(F)cc1` (centres undefined): the melting point (usually the temperature, or range, at which the solid turns liquid) is 231 °C.

`OC1CCn2c(CCc3ccccc3)nc3cccc1c32` (centres undefined) returned a melting point of 125 to 126 °C. Turning to `COc1cc(N2C(=O)c3ccccc3C2=O)c2nc(Cl)cc(C)c2c1Oc1cccc(C(F)(F)F)c1`, the melting point lay in the range of 225 to 227 °C. The value for `CN1CCN(c2nc(-c3ccccc3)nc3nc(-c4ccncc4)[nH]c23)CC1` was 333 to 337 °C; that for `O=C1Nc2cccnc2Oc2ccccc21` was 268 to 270 °C; that for `CN1CN(C(=O)c2c(F)cccc2F)C(=O)N(c2ccc(Cl)cc2)C1` was 140 °C. In the case of `Nc1ncnc2c1ncn2[C@H]1C[C@@H](CO)C1`, the melting point is 85 to 88 °C.

Compound `S=C(NCc1ccccc1Cl)N1CCc2c([nH]c3ccccc23)C1c1ccc2c(c1)OCO2` (centres undefined) yielded a melting point of 123 to 128 °C. The value for `N#Cc1cc(C(=O)O)cc(O)c1O` was 269 to 271 °C. Next, `CCOC(=O)C1=C(C)Nc2ncn(C(C)C)c(=O)c2C1c1ccccc1F` (centres undefined): 178 to 180 °C; `CCc1ccc2c(c1)C=Cc1ccccc1C2c1cn(Cc2ccc(C(=O)O)o2)c(=O)[nH]c1=O` (centres undefined): 178 to 180 °C. `COC(C)c1cccc2oc(C(=O)O)c(C)c12` (centres undefined) showed a melting point of 113 to 115 °C.

For `NC(=O)Nc1ccccc1S`, the melting point was 151 to 153 °C. The value for `COC(=O)c1cn(C2CC2)c2c(F)c(F)c(F)cc2c1=O` was 214 to 216 °C. Compound `CN(N)c1cc(Cl)ncn1` had a melting point of 182 to 185 °C. As for `O=S(=O)(Cl)c1ccc(Oc2ccc(Cl)cc2)cc1`, the melting point stood at 61 °C.

`COCc1ccc(-c2coc3ccc(-c4nnc(C)o4)cc23)cc1`: the melting point lay within 158 to 159 °C. Next, `CON1CCC2(CC1)C(O)=C(c1c(C)cc(C)cc1C)C(=O)N2OC1CCCCC1`: 115 to 118 °C; `O=C(OCc1ccccc1)c1cc(-c2ccc(-c3ccc(C(F)(F)F)cc3)o2)ccc1OCc1ccccc1`: 97 to 98 °C; `N#CC1=Cc2ccccc2C(N2CCN(N)CC2)c2ccccc21` (centres undefined): 137 to 146 °C. The value for `C#CCN1C(=O)COc2cc(F)c(N(C(C)=O)C(=O)C3=C(C(=O)OC)CCCC3)cc21` was 153 to 154 °C.

Turning to `O=C(CCCCCOc1ccc2c(c1)[nH]c1ccccc12)NO`, the melting point worked out at 192 °C.

`COc1cccc2c(Nc3ccccc3C)nc(Cl)nc12` had a melting point of 218 to 220 °C. Turning to `COc1ccc(CCC(=O)C2C(=O)C=C(C)OC2=O)cc1O` (centres undefined), the melting point lay in the range of 115 to 116 °C. `CCOC(=O)Cn1cc2c(n1)CCN(C(=O)OC(C)(C)C)C2`: the melting point fell in the range of 90 to 91 °C. Next, `CC1(C)NC(=O)N(c2ccc([N+](=O)[O-])cc2)C1=O`: 176 to 177 °C; `CCOC(=O)c1c(O)c2cnc(SC)nc2n(C)c1=O`: 166 to 168 °C; `NC(=O)CN1C[C@@H]2CCCC[C@@H]2C1=O` (relative stereo): 142 to 144 °C. Next, `CCOC1CCN(C(=O)c2cc(-c3ccccc3)c(=O)n3ccc4ccsc4c23)C1` (centres undefined): 167 to 170 °C; `COc1cc(O)ccc1-c1nc2cnccc2[nH]1`: 255 °C; `COc1cc(Nc2c(C#N)cnc3cc(OS(=O)(=O)C(F)(F)F)c(OC)cc23)c(Cl)cc1Cl`: 220 to 223 °C. The value for `Cc1ccc([N+](=O)[O-])cc1Nc1cc(Cl)ccn1` was 130 to 133 °C; that for `Cc1ccc(-c2ccc(Cl)c(OC3SCC(O)C(O)C3O)c2)cn1` (centres undefined) was 201 °C. `N#Cc1cc(F)c(-n2c(=O)cc(C(F)(F)F)[nH]c2=O)cc1Oc1ccc2ccccc2c1` gave a melting point of 92 °C. `COc1ccccc1-n1cc(-c2ccccc2)c(OCC(=O)O)n1`: the melting point was 170 to 174 °C. `CSCc1nc(C)c(C)c(O)n1`: the melting point came to 166 °C. In the case of `CC(C)(C)c1cc(C(O)CN)cc(C(C)(C)C)c1O` (centres undefined), the melting point is 137 to 140 °C. For `NC(=O)c1c[nH]c2cc(Cl)c([N+](=O)[O-])cc2c1=O`, the melting point fell in the range of 298 to 300 °C.

As for `COC(=O)c1cccc2nc(SCCCN3CCN(CC(=O)Nc4c(C(C)C)cccc4C(C)C)CC3)oc12`, the melting point is 135 to 136 °C. Next, `Clc1cc(Cl)n2c(-c3cccs3)ncc2n1`: 152 to 153 °C. The value for `Nc1ccccc1Oc1ccc2c(c1)C(=O)NC2=O` was 212 °C; that for `O=c1ccc(-c2ccc(Cl)c(C(F)(F)F)c2)n[nH]1` was 249 to 251 °C.

Consider `CC(Oc1ccc(Oc2ccc3cc(Cl)ccc3n2)cc1)C(=O)O` (centres undefined), for which the melting point was found to be 130 °C. With `COc1ccc(N2C(=O)C(N3C(=O)c4ccccc4C3=O)C2c2ccc(C(=O)O)cc2)cc1` (centres undefined), the melting point worked out at 265 °C. `O=C1NC2CCC(=O)N2[C@H]1Cc1ccccc1` (some centres undefined) registered a melting point of 141 to 145 °C. The value for `O=C(Cc1ccc(Cl)c(Cl)c1)N1C(=O)OC[C@@H]1Cc1ccccc1` was 70.5 to 71.5 °C; that for `Cc1ccc(CC(=O)N[C@H]2C[C@H](C(=O)O)Nc3cc(Cl)cc(Cl)c32)cc1` (relative stereo) was 229 to 230 °C. Next, `CSc1ncc(Sc2nc(C)c(CC(=O)O)s2)c(C(=O)O)n1`: 238 to 239 °C. Compound `CC1(C)OC[C@H](Cc2ccccc2)N1C(=O)C(=O)c1ccn(-c2ccc(-c3ccccc3)cc2)c1` came in with a melting point of 150 to 152 °C.

In the case of `NC(=O)Nc1ccc2c(OCc3ccccc3-c3ccccc3)cccc2c1`, the melting point was in the range of 159 to 161 °C. Next, `Cc1cn(-c2cc(NC(=O)OC(C)(C)C)cc(C(F)(F)F)c2)cn1`: 186 to 188 °C. The value for `Cc1c(C(F)(F)F)n(C)c(=O)n(-c2ccc(Br)cc2F)c1=O` was 129 to 131 °C. Next, `N#Cc1ccc(-c2ccc(O)c(-c3nc4cc(C#N)ccc4[nH]3)c2)cc1`: > 340 °C; `CNS(=O)(=O)c1cc(C(=O)CCCCCl)cc2c1CCC2`: 107 to 109 °C; `O=C(CBr)N[C@H](Cc1ccc(C(F)(F)F)cc1)[C@@H](O)c1ccc(F)cc1` (racemic): 151 to 152 °C. In the case of `Nc1cc(Br)cnc1CCCCNc1nccc(=O)[nH]1`, the melting point is 130 to 135 °C. The value for `CCCCNc1c(N)c(NCC(C)C)nc(C)c1C(=O)OCC` was 34 to 36 °C; that for `O=C1Cc2cc(Cl)ccc2Oc2ccccc21` was 60 to 61 °C. The value for `O=Cc1ccc2nccc(Oc3ccccc3)c2c1` was 112 to 115 °C. Take `CN(C)c1ncc2cc(-c3c(Cl)cccc3Cl)c(=O)n(C)c2n1`: the melting point was in the range of 256 to 258 °C. Compound `CC(C(=O)O)c1ccc(C(=O)c2ccc(Cl)cc2)n1C` (centres undefined) had a melting point of 139 to 141 °C. As for `O=C(CCCCCCCCCCCCC(=O)Oc1cc(O)cc(O)c1)Oc1cc(O)cc(O)c1`, the melting point lay in the range of 140 to 145 °C.

The compound `COc1cc(-c2ccc(O)cc2)ccc1C=O` showed a melting point of 159 to 161 °C. The value for `O=c1c2c(Cc3ccccc3C(F)(F)F)n[nH]c2c2cccnc2n1-c1cccc(OC(F)(F)F)c1` was 252 to 255 °C. Next, `O=C1c2ccccc2C(=O)N1CCSc1ncccn1`: 149 to 150 °C; `CC(C)(CN)Nc1ncc2ncnc(Nc3ccc(F)c(Cl)c3)c2n1`: 196 to 201 °C.

Take `CCCCC(=O)Nc1ncc([N+](=O)[O-])s1`: the melting point lay within 155 to 156 °C.

Take `CCCCCN(CCCCC)C(=O)C(CCC(=O)O)CS(=O)(=O)c1ccc(Cl)c(Cl)c1` (centres undefined): the melting point fell in the range of 76 to 79 °C. Next, `CNc1nc(-c2cccc(NC(=S)c3ccc(C)cc3)c2)c2cc(OC)c(OC)cc2n1`: 209 to 211 °C; `COc1cc(C(=O)NS(=O)(=O)Cc2ccccc2C(F)(F)F)nc(C)n1`: 120 to 122 °C. `COC(=O)c1ncc(C(=O)O)c2ccccc12` displayed a melting point of 189 °C.

Turning to `CCCSNc1ccc(N)cc1`, the melting point lay in the range of 213 to 225 °C.

Consider `CCN(CC)c1ccc2c(c1)C[C@@H]1c3ccccc3N[C@H]21` (relative stereo), for which the melting point lay in the range of 116 to 118 °C.

Compound `N#CCCc1cccc2c1N(Cc1cccc(/C=C/c3ccc4ccccc4n3)c1)CC2` yielded a melting point of 126 to 129 °C.

The compound `COc1ccc(C(=O)C2=C(O)C(=O)N(c3ccc(C)nn3)C2c2ccc(OC)cc2)cc1` (centres undefined) registered a melting point of 259 °C. The value for `CCn1c(C)nc2cc([N+](=O)[O-])c(Sc3cccc4cnccc34)cc21` was 226 to 229 °C.

Compound `COc1ccc(N)c2nccc(Cl)c12` yielded a melting point of 111 to 115 °C. The value for `N#Cc1csc(-c2csc(C(O)(Cn3cncn3)c3ccc(F)cc3F)c2)n1` (centres undefined) was 172 to 173 °C; that for `CSc1nc(N)nc(-c2ccc([N+](=O)[O-])o2)n1` was 179 to 181 °C; that for `N#CCNC(=O)c1ccco1` was 85 to 93 °C. `CC(C)c1ccc(-c2nc(Cl)c(C=O)n2Cc2ccc(-c3ccccc3S(=O)(=O)N=CN(C)C)cc2)cc1`: the melting point came to 177 °C.

As for `O=C(O)CCc1c([N+](=O)[O-])cc(O)c(O)c1[N+](=O)[O-]`, the melting point lay in the range of 162 to 165 °C.

On to `O=c1[nH]c(=Cc2cccs2)c(=O)[nH]c1=Cc1ccc(OCc2ccccc2)cn1`, for which the melting point fell in the range of 215 to 217 °C. The compound `CC(C)[Si](Oc1ccc([C@@H](O)[C@@H](C)N2CCC(O)(c3ccccc3)CC2)cc1F)(C(C)C)C(C)C` (relative stereo) had a melting point of 140 to 141 °C.

On to `COc1c(C)c(C)c(OCc2ccccc2)c(C)c1CN(C)CCOc1cc(C)ccc1C(C)C`, for which the melting point lay within 138 to 141 °C. The value for `CS(=O)(=O)c1ccc(-c2cnn(-c3cccc(Cl)c3)c(=O)c2Oc2cccc(F)c2)cc1` was 178 to 180 °C; that for `O=c1[nH]c(=O)n(C2CC(OCc3cccc4ccccc34)C(CO)O2)cc1F` (centres undefined) was 159 to 160 °C; that for `CCOC(=O)N(N)C(=O)c1ccccc1O` was 126 °C. Next, `C=CC(=O)Oc1ccc(NS(=O)(=O)CC)cc1`: 99 to 100 °C.
